From US11259522B2, “Control of resistant pests” (priority 2017, dated 2022)
Converted amounts (≈) assume the structure as drawn. “And” between values parts separate entries of the source, which are not always exact repeats. Equal entries are not always repeated. Where two headings read alike, the source gives them in different places.

Assays:
[1] = tested on: Halotydeus destructor resistant population (synthetic pyrethroid resistance); assay: Coated plastic vial bioassay, redlegged earth mite, resistant population; format: in vivo; conditions: 24 hours exposure; for LC50: Halotydeus destructor, 24 h
Procedure: (§1) The test compositions included 0.1% Tween 20 non-ionic surfactant to aid the spread of insecticides when coating plastic vials. This concentration of Tween 20 has been previously shown to have no toxic effect on H. destructor. For each insecticide concentration tested, 3, 10, 30, 100, 300, 1000, 3000 and 10000 mg a.i./L (ppm), approximately 10 mL of solution was poured into a 15 mL plastic vial and swirled to ensure a complete coating, with excess liquid removed. Eight vials were coated per concentration and were left to dry overnight. Control vials were treated in the same way but with water used in place of test composition.
(§2) Eight susceptible H. destructor mites were then placed into each vial along with a leaf of common vetch (Vicia sativa). The leaf was added to provide food and increase humidity. Vials were then sealed with a lid and placed at 18° C. After 4, 6, 8 and 24 hours of exposure, the mites were scored as alive (moving freely), incapacitated (inhibited movement), or dead (no movement over a 5 second period).
The resistant population of H. destructor was collected from a lucerne paddock in the Upper South-East district of South Australia, where resistance to synthetic pyrethroids was confirmed in late 2016.
(§3) The data produced in the assays were assessed for concentrations that caused 50, 90 and 99% mortality (lethal concentration, LC), together with 95% confidence intervals (CIs) and were estimated from observations of mortality after 24 hours exposure using a binomial logistic regression (Robertson & Preisler, 1992, Pesticide Bioassays with Arthropods. CRC: Boca Raton; Venables & Ripley, 2002, Modern Applied Statistics with S. Springer: New York). Population differences were tested by comparing the change in model deviance with and without the population factor (different regression intercepts for each population). Differences in regression slopes between populations were tested by comparing the change in model deviance with and without the population×dose interaction term. The resistance ratio of the insecticide-resistant population was estimated as the ratio of its LC50 to that of the susceptible population. All analyses were performed using R 3.3. (R Core Team 2017, R: A language and environment for statistical computing. R Foundation for Statistical Computing, Vienna, Austria. http://www.R-project.org).

[2] = tested on: Halotydeus destructor susceptible population; assay: Coated plastic vial bioassay, redlegged earth mite, susceptible population; format: in vivo; conditions: for LC50: Halotydeus destructor, read-out: LC50 (mg a.i./L)
Procedure: The efficacy of flavesone against H. destructor was assessed using the glass vial technique developed by Hoffmann et al. (1997, Exp. Appl. Acarol., 21:151-162), adapted for plastic vials. A susceptible population of mites was collected from capeweed (Arctotheca calendula) at a Victorian site (37° 40′33″S, 145° 07′ 45″E) that had no known history of insecticide application. Following collection, samples were stored in small plastic containers with leaf material and paper towel to absorb excess moisture. Containers were kept at 4° C. prior to testing.
as §1
as §2, with “period). […]” for “period).”
as §3

[3] = tested on: Rhyzopertha dominica strain QRD1440 (resistant to OP protectants and pyrethroids); assay: Grain protectant bioassay on treated wheat, resistant lesser grain borer; conditions: Example 5, QRD1440, replicates A, B, C; for F1 Progeny count No. dead/total: further 6 weeks
[4] = tested on: Rhipicephalus microplus larvae, multi-resistant Tiaro reference strain; assay: Larval packet test (LPT), cattle tick larvae, multi-resistant strain; format: in vivo; conditions: Example 2, 24 hours
Procedure: (§4) Filter papers (75 mm×85 mm Whatman® No. 541), with grid patterns, were impregnated on ½ of the paper with 225 μL of each solution using a micro-pipette and immediately folded in half, enveloped in polyethylene plastic and sealed with 3 bulldog clips. The impregnated papers were kept at room temperature on aluminium trays for a minimum of 60 minutes to allow for dispersal across the grid pattern of the paper prior to aliquoting of larvae. The packets were prepared in duplicate for each concentration, including the negative control.
(§5) Aliquots of approximately 100 larvae were placed into each packet using plastic disposable forceps and the packets resealed and incubated and 27° C. and 85% relative humidity (RH).
(§6) After 24 hours, the larval packets were opened and the numbers of dead and live larvae were counted under a magnification lamp. Percentage mortality was calculated and, where applicable, corrected using Abbott's Formula (Abbott, 1925, J. Economic Entomology, 18:256-257): […]
(§7) LC50 and LC99 values were determined by Probit mortality vs log concentration analysis. Probit values were derived from “Transformation of Percentages to Probit's Tables” published by Fisher R. A. and Yates F. (1938).
(§8) The LPT Assay of Example 1 was repeated using a narrow range of concentrations, 1 in 2 series, of flavesone to determine LC50 and LC99 values against the susceptible NRFS and the multi-resistant Tiaro reference strain.
The Tiaro strain of R. microplus comprises of about 30% fluazuron, 60.6% cypermethrin (SP), 57.6% flumethrin (SP), 16.2% amitraz (amidine), 11.3% DDT, 9.3% chlorpyrifos (OP) and 2.4% dieldrin resistance [2014 acaricide resistance profiling].
The stock solution of flavesone (100,000 ppm) was diluted 1 in 10 with olive oil (1 mL to 9 mL diluent) to give 10,000 ppm, which was then further diluted 1 in 2 in series (5 mL to 5 mL diluent) to give 5,000 ppm, 2,500 ppm, 1,250 ppm, 625 ppm, 312.5 ppm and 156.25 ppm concentrations.
For the preparation of the positive control, cypermethrin, a stock solution of a concentration of 10,000 ppm was prepared in 2:1 trichloroethylene (TCE)/olive oil as the solvent ([…] cypermethrin, 94.8% purity, to 10 mL solvent) and then further diluted 1 in 2 in series (5 mL to 5 mL solvent) to also give 5,000 ppm, 2,500 ppm, 1,250 ppm, 625 ppm, 312.5 ppm and 156.25 ppm.
The flavesone papers were prepared as in Example 1.
The cypermethrin papers were impregnated with 670 μL of each solution using a micro-pipette and hung on a rack in a fume-hood to allow papers to dry (evaporation of TCE) for a minimum of 60 minutes. The papers were then folded in half and sealed with three bulldog clips, placed on aluminium trays prior to aliquoting the larvae. All packets were prepared in duplicate.
A dose-response relationship was determined at 24 hours contact exposure.
Concentrations of 1,250 ppm, 625 ppm and 312.5 ppm flavesone concentrations prepared for Example 3 were used on the same day of preparation. Duplicate papers were prepared for both the NRFS and Tiaro strains (including negative controls) as described in Example 2.
Mortality was assessed at 48 hours and LC50 and LC99 values were determined by Probit mortality vs log concentration analysis.

[5] = tested on: Rhipicephalus microplus larvae, susceptible non-resistant field strain (NRFS); assay: Larval packet test (LPT), cattle tick larvae, susceptible strain; format: in vivo; conditions: for LC50 (ppm) / LC99 (ppm): NRFS, 24 hours, Probit analysis; for mortality at 1250 ppm: 1,250 ppm
Procedure: The larval packet test (LPT) is a modification of that first described by Stone and Haydock (1962, Bull. Entomol. Res., 563-578, http://dx.doi.org/10.1017/5000748530004832X) for evaluation of field resistance in cattle tick (Rhipicephalus microplus) larvae.
The first LPT assay was conducted to identify the potential range of flavesone acaricidal activity against larvae of a susceptible non-resistant field strain (NRFS) of R. microplus as a reference strain using a wide range of concentrations (1 in 10 in series).
The test compound, flavesone, 6-isobutyryl-2,2,4,4-tetramethylcyclohexane-1,3,5-trione, 96.7%, was used. As its volatility/evaporative properties were unknown, the LPT method was modified to incorporate the use of suitably-sized polyethylene plastic sheets to envelop the larval packets, minimizing exposure of the test active to the atmosphere.
In addition, the use of the solvent trichloroethylene (TCE) was removed to avoid the time required for evaporation in the preparation of test papers. The test solutions were prepared in olive oil only at the diluent and the papers immediately enveloped in the plastic sheets and sealed with bulldog clips to minimize evaporation.
A stock solution with a concentration of 100,000 ppm (10%) flavesone was prepared in olive oil as the diluent (1.035 mL flavesone (96.7%) to 8.965 mL olive oil) and then further diluted 1 in 10 in series to also give 10,000 ppm, 1,000 ppm, 100 ppm, 10 ppm and 1 ppm concentration. The negative control was olive oil only. No positive control was included in this experiment. Due to the viscosity of the olive oil, all solutions were prepared using reverse pipetting technique.
as §4
An 8 dram vial containing approximately 20,000 hatched 7-21 day old NRFS larvae (about 1 g eggs) was opened and set up on a moated tray with a small amount of detergenated water, about 15 to 30 minute before use. Only larvae that migrated to the top of the vial were used in the assay.
as §5, §6, §7, §8
The stock solution of flavesone (100,000 ppm) was diluted 1 in 10 with olive oil (1 mL to 9 mL diluent) to give 10,000 ppm, which was then further diluted 1 in 2 in series (5 mL to 5 mL diluent) to give 5,000 ppm, 2,500 ppm, 1,250 ppm, 625 ppm, 312.5 ppm and 156.25 ppm concentrations. […]

[6] = tested on: Aedes aegypti Liverpool strain (insecticide susceptible, LVP) L3 larvae; assay: Mosquito larval dose response assay, LVP strain; conditions: read-out: Lethal Concentration (LC50) LVP Strain
[7] = tested on: Aedes aegypti PRS Puerto Rican strain (synthetic pyrethroid resistant) L3 larvae; assay: Mosquito larval dose response assay, PRS strain; conditions: read-out: Lethal Concentration (LC50) PRS Strain
[8] = Susceptible population, 24 hours exposure
[9] = Rhipicephalus microplus, 24 h, Example 2
[10] = Rhipicephalus microplus, 24 h, Example 3

Cc1c(COC(=O)[C@@H]2[C@H](/C=C(\Cl)C(F)(F)F)C2(C)C)cccc1-c1ccccc1 (racemic) [Bifenthrin, bifenthrin]
resistance ratio (LC50 of resistant population to that of susceptible population) [1]: about 3,500 times | LC50 ([1]; Resistant population, read-out: LC50 (mg a.i./L)): 144 µg/mL (≈ 340 µM) | LC90 (mg a.i./L) ([1]; Resistant population): 5.4 × 10^5 mg a.i./L | LC99 (mg a.i./L) ([1]; Resistant population): 4.3 × 10^9 mg a.i./L | LC50 [2, 8]: 0.04 µg/mL (≈ 0.0946 µM) | LC90 (mg a.i./L) [2, 8]: 2.66 mg a.i./L | LC99 (mg a.i./L) [2, 8]: 233.10 mg a.i./L

CCOP(=S)(OCC)Oc1nc(Cl)c(Cl)cc1Cl [Chlorpyrifos, chlorpyrifos, reference compound]
resistance ratio (LC50 of resistant population to that of susceptible population) [1]: 6.5 times | LC50 ([1]; read-out: LC50 (mg a.i./L), Resistant population): 1.37 µg/mL (≈ 3.91 µM) | LC90 (mg a.i./L) ([1]; Resistant population): 7.76 mg a.i./L | LC99 (mg a.i./L) ([1]; Resistant population): 51.56 mg a.i./L | LC50 ([2]; 24 h): 0.21 µg/mL (≈ 0.599 µM) | LC90 (mg a.i./L) [2, 8]: 0.76 mg a.i./L | LC99 (mg a.i./L) [2, 8]: 3.18 mg a.i./L | F1 Progeny count No. dead/total ([3]; 5 ppm on wheat): 2/470 and 3/172 and 3/355 | 14 Day adult mortality No. dead (total) ([3]; 5 ppm on wheat): 0/50 (2×) and 1/50 | F1 Progeny count No. dead/total ([3]; 10 ppm on wheat): 1/350 and 0/317 and 2/232 | 14 Day adult mortality No. dead (total) ([3]; 10 ppm on wheat): 0/50

CC1(C)C(C=C(Cl)Cl)C1C(=O)OC(C#N)c1cccc(Oc2ccccc2)c1 (centres unmarked) [Cypermethrin, cypermethrin, reference compound]
LC50 (ppm) ([4]; Tiaro, Probit analysis): 3082 ppm | LC99 (ppm) ([4]; Tiaro, Probit analysis): >10,000 ppm | mortality at 2.5 ppm ([4]; Rhipicephalus microplus, 2.500 ppm): 59.7% | mortality at 156.25 ppm ([4]; Rhipicephalus microplus, 156.25 ppm): 0.56% | mortality at 312.5 ppm ([4]; Rhipicephalus microplus, 312.5 ppm): 20.4% | mortality at 625 ppm ([4]; Rhipicephalus microplus, 625 ppm): 21.9% | mortality at 1250 ppm ([4]; Rhipicephalus microplus, 1,250 ppm): 20.9% | mortality at 5000 ppm ([4]; Rhipicephalus microplus, 5,000 ppm): 62.2% | mortality at 10000 ppm ([4]; Rhipicephalus microplus, 10,000 ppm): 66.8% | LC50 (ppm) ([5]; Example 2): 128 ppm | LC99 (ppm) ([5]; Example 2): 540 ppm | LC50 (ppm) ([5]; Example 3): 112 ppm | LC99 (ppm) ([5]; Example 3): 317 ppm | mortality at 2.5 ppm ([5]; Rhipicephalus microplus, 24 h, Example 2, 2.500 ppm): 100% | mortality at 156.25 ppm [5, 9]: 67.3% | mortality at 312.5 ppm [5, 9]: 89% | mortality at 625 ppm [5, 9]: 99.6% | mortality at 1250 ppm [5, 9]: 100% | mortality at 5000 ppm ([5]; Rhipicephalus microplus, 24 h, Example 2, 5,000 ppm): 100% | mortality at 10000 ppm ([5]; Rhipicephalus microplus, 24 h, Example 2, 10,000 ppm): 100% | mortality at 39.0625 ppm ([5]; Rhipicephalus microplus, 24 h, Example 3, 39.0625 ppm): 0% | mortality at 78.125 ppm ([5]; Rhipicephalus microplus, 24 h, Example 3, 78.125 ppm): 20.6% | mortality at 156.25 ppm [5, 10]: 79.6% | mortality at 312.5 ppm [5, 10]: 99.2% | mortality at 625 ppm [5, 10]: 100% | mortality at 1250 ppm [5, 10]: 100%

CCOC(=O)CC(SP(=S)(OC)OC)C(=O)OCC (centres unmarked) [Malathion, malathion]
LC50 ([6]; 24 h): 0.11 µg/mL (≈ 0.334 µM) | LC50 ([6]; 48 h): 0.0389 µg/mL (≈ 0.118 µM) | LC50 ([6]; 72 h): 0.0298 µg/mL (≈ 0.0901 µM) | LC50 ([7]; 24 h): 0.291 µg/mL (≈ 0.88 µM) | LC50 ([7]; 48 h): 0.177 µg/mL (≈ 0.535 µM) | LC50 ([7]; 72 h): 0.127 µg/mL (≈ 0.384 µM)
